# Source: patent publication US8883826B2, “Alkynyl derivatives as modulators of metabotropic glutamate receptors” (Addex Pharma SA, priority 2004, dated 2014)
# Target: T1, mGluR5 (Rattus norvegicus, UniProt P31424)
# T1 construct: tissue Charles River Laboratories; host or cells: rat brain cortex membranes (Sprague-Dawley)
# Assay: mGluR5 binding assay ([3H]-MPEP radioligand competition)
# Details: competition with 3 nM [3H]-MPEP, rat brain cortical membranes, 1 h at 4 °C; mean of at least three independent experiments in duplicate
# Excerpt: Activity of compounds of the invention was examined following a radioligand binding technique using whole rat brain and tritiated 2-methyl-6-(phenylethynyl)-pyridine ([^3H]-MPEP) as a ligand following similar methods than those described in F. Gasparini et al. Bioorg. Med. Chem. Lett. 2002, 12, 407-409 and in J. F. Anderson et al. J. Pharmacol. Exp. Ther. 2002, 303, 3, 1044-1051.
# Cortices were dissected out from brains of 200-300 g Sprague-Dawley rats (Charles River Laboratories, L'Arbresle, France). Tissues were homogenized in 10 volumes (vol/wt) of ice-cold 50 mM Hepes-NaOH (pH 7.4) using a Polytron disrupter (Kinematica AG, Luzern, Switzerland) and centrifuged for 30 min at 40,000 g. (4° C.). The supernatant was discarded and the pellet washed twice by resuspension in 10 volumes 50 mM HEPES-NaOH. Membranes were then collected by centrifugation and washed before final resuspension in 10 volumes of 20 mM HEPES-NaOH, pH 7.4. Protein concentration was determined by the Bradford method (Bio-Rad protein assay, Reinach, Switzerland) with bovine serum albumin as standard.
# [^3H]-MPEP Binding Experiments:
# Membranes were thawed and resuspended in binding buffer containing 20 mM HEPES-NaOH, 3 mM MgCl2, 3 mM CaCl2, 100 mM NaCl, pH 7.4. Competition studies were carried out by incubating for 1 h at 4° C.: 3 nM [^3H]-MPEP (39 Ci/mmol, Tocris, Cookson Ltd, Bristol, U.K.), 50 μg membrane and a concentration range of 0.003 nM-30 μM of compounds, for a total reaction volume of 300 μl. The non-specific binding was defined using 30 μM MPEP. Reaction was terminated by rapid filtration over glass-fiber filter plates (Unifilter 96-well GF/B filter plates, Perkin-Elmer, Schwerzenbach, Switzerland) using 4×400 μl ice cold buffer using cell harvester (Filtermate, Perkin-Elmer, Downers Grove, USA). Radioactivity was determined by liquid scintillation spectrometry using a 96-well plate reader (TopCount, Perkin-Elmer, Downers Grove, USA).
# The inhibition curves were generated using the Prism GraphPad program (Graph Pad Software Inc, San Diego, USA). IC50 determinations were made from data obtained from 8 point-concentration response curves using a non linear regression analysis.
# The table below represents the mean of IC50 obtained from at least three independent experiments of selected molecules performed in duplicate.
# T1 sequence (P31424 21-1203): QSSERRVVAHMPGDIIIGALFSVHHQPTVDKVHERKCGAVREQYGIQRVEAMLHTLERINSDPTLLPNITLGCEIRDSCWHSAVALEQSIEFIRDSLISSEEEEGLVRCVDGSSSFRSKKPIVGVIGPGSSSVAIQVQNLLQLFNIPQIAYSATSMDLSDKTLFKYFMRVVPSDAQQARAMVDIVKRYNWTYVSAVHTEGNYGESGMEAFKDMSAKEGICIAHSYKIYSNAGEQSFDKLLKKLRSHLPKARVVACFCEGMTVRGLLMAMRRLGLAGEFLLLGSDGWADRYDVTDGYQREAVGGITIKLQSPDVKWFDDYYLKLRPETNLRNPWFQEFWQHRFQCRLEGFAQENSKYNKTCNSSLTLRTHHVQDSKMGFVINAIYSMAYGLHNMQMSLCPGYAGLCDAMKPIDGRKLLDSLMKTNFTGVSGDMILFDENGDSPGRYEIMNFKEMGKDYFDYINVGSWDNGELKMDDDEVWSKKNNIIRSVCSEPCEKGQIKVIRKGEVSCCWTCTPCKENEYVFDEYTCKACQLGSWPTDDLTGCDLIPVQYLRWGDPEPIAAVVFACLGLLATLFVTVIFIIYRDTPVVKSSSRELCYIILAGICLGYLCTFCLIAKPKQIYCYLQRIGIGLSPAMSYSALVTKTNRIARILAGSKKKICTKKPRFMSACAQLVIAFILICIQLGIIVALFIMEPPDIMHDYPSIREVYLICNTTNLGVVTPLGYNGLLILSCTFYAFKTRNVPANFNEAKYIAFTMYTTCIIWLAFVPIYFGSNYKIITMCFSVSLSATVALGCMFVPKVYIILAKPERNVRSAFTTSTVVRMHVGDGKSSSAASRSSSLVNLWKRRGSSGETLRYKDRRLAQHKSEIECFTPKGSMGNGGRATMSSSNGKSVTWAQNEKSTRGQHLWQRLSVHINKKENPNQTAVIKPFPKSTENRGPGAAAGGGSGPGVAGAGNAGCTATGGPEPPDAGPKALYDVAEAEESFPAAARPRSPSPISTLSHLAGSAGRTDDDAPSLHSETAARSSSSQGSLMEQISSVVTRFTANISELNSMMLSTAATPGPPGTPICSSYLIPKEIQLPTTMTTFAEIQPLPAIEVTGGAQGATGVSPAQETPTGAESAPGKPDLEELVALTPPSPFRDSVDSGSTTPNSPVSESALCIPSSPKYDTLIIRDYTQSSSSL
row,SMILES,IC50
1,"Fc1cccc2nc(CCC#Cc3ccccn3)oc12 [Example 64, 7-Fluoro-2-(4-(pyridin-2-yl)but-3-ynyl)benzo[d]oxazole]",< 50 nM
2,"C(#Cc1ccccn1)CCc1ncc(-c2ccccc2)o1 [Example 65, 2-(4-(5-Phenyloxazol-2-yl)but-1-ynyl)pyridine]",< 50 nM
3,"Cc1c(Cl)cccc1-c1noc(CCC#Cc2ccccn2)n1 [Example 66, 2-(4-(3-(3-Chloro-2-methylphenyl)-1,2,4-oxadiazol-5-yl)but-1-ynyl)pyridine]",< 500 nM
4,"Cc1cccn2cc(CCC#Cc3ccccn3)nc12 [Example 67, 8-Methyl-2-(4-(pyridin-2-yl)but-3-ynyl)-imidazo[1,2-a]pyridine]",< 10000 nM
5,"Cc1cccc2nc(CCC#Cc3ccccn3)cn12 [Example 68, 5-Methyl-2-(4-(pyridin-2-yl)but-3-ynyl)-imidazo[1,2-a]pyridine]",< 10000 nM
6,"C(#Cc1ccccn1)CCc1cn2c(-c3ccccc3)cccc2n1 [Example 69, 5-Phenyl-2-(4-(pyridin-2-yl)but-3-ynyl)-imidazo[1,2-a]pyridine]",< 50 nM
7,"Oc1cccc2oc(CCC#Cc3ccccn3)nc12 [Example 70, 2-(4-(Pyridin-2-yl)but-3-ynyl)benzo[d]oxazol-4-ol]",< 10000 nM
8,"Fc1ccc(C#CCCc2nc3ccccc3o2)nc1 [Example 71, 2-(4-(5-Fluoropyridin-2-yl)but-3-ynyl)benzo[d]oxazole]",< 10000 nM
9,"COc1cccc2oc(CCC#Cc3ccccn3)nc12 [Example 72, 4-Methoxy-2-(4-(pyridin-2-yl)but-3-ynyl)benzo[d]oxazole]",< 10000 nM
10,"Cc1nc(C#CCCc2cn3ccccc3n2)cs1 [Example 73, 2-(4-(2-Methylthiazol-4-yl)but-3-ynyl)imidazo[1,2-a]pyridine]",< 10000 nM
11,"Fc1ccc2nc(CCC#Cc3ccccn3)cn2c1 [Example 74, 6-Fluoro-2-(4-(pyridin-2-yl)but-3-ynyl)-imidazo[1,2-a]pyridine]",< 10000 nM
12,"Fc1ccc(C#CCCc2cn3ccccc3n2)nc1 [Example 75, 2-(4-(5-Fluoropyridin-2-yl)but-3-ynyl)-imidazo[1,2-a]pyridine]",< 10000 nM
13,"C(#Cc1ccccn1)CCc1nc2cccnc2o1 [Example 76, 2-(4-(Pyridin-2-yl)but-3-ynyl)oxazolo[5,4-b]pyridine]",< 10000 nM
14,"Fc1cc(Cl)c2oc(CCC#Cc3ccccn3)nc2c1 [Example 77, 7-Chloro-5-fluoro-2-(4-(pyridin-2-yl)but-3-ynyl)benzo[d]oxazole]",< 50 nM
15,"C(#Cc1ccccn1)CCc1nc2ncccc2o1 [Example 78, 2-(4-(Pyridin-2-yl)but-3-ynyl)oxazolo[4,5-b]pyridine]",< 10000 nM
16,"N#Cc1ccc2oc(CCC#Cc3ccccn3)nc2c1 [Example 79, 2-(4-(Pyridin-2-yl)but-3-ynyl)benzo[d]oxazole-5-carbonitrile]",< 10000 nM
17,"Cc1nc(C#CCCc2nc3cc(F)cc(Cl)c3o2)cs1 [Example 80, 7-Chloro-5-fluoro-2-(4-(2-methylthiazol-4-yl)but-3-ynyl)benzo[d]oxazole]",< 50 nM
18,"FC(F)(F)c1cccc2nc(CCC#Cc3ccccn3)oc12 [Example 81, 7-(Trifluoromethyl)-2-(4-(pyridin-2-yl)but-3-ynyl)benzo[d]oxazole]",< 50 nM
19,"Fc1cc(Br)c2oc(CCC#Cc3ccccn3)nc2c1 [Example 82, 7-Bromo-5-fluoro-2-(4-(pyridin-2-yl)but-3-ynyl)benzo[d]oxazole]",< 50 nM
20,"Fc1cc(-c2ccccc2)c2oc(CCC#Cc3ccccn3)nc2c1 [Example 83, 5-Fluoro-7-phenyl-2-(4-(pyridin-2-yl)but-3-ynyl)benzo[d]oxazole]",< 10000 nM
21,"Clc1nccc(C#CCCc2nc3ccccc3o2)n1 [Example 84, 2-(4-(2-Chloropyrimidin-4-yl)but-3-ynyl)benzo[d]oxazole]",< 10000 nM
22,"Brc1cccc2oc(CCC#Cc3ccccn3)nc12 [Example 86, 4-Bromo-2-(4-(pyridin-2-yl)but-3-ynyl)benzo[d]oxazole]",< 50 nM
23,"C(#Cc1ccccn1)CCc1nc2c(-c3ccccc3)cccc2o1 [Example 87, 4-Phenyl-2-(4-(pyridin-2-yl)but-3-ynyl)benzo[d]oxazole]",< 10000 nM
24,"Clc1cccc2oc(CCC#Cc3ccccn3)nc12 [Example 88, 4-Chloro-2-(4-(pyridin-2-yl)but-3-ynyl)benzo[d]oxazole]",< 50 nM

row,SMILES,IC50
1,"Cc1cccc2nc(CCC#Cc3ccccn3)oc12 [Example 91, 7-Methyl-2-(4-(pyridin-2-yl)but-3-ynyl)benzo[d]oxazole]",< 50 nM
2,"COc1cccc2nc(CCC#Cc3ccccn3)oc12 [Example 94, 7-Methoxy-2-(4-(pyridin-2-yl)but-3-ynyl)benzo[d]oxazole]",< 50 nM
3,"CC(C)c1cccc2nc(CCC#Cc3ccccn3)oc12 [Example 95, 7-Isopropyl-2-(4-(pyridin-2-yl)but-3-ynyl)benzo[d]oxazole]",< 10000 nM
4,"Fc1ccc(F)c2oc(CCC#Cc3ccccn3)nc12 [Example 96, 4,7-Difluoro-2-(4-(pyridin-2-yl)but-3-ynyl)benzo[d]oxazole]",< 50 nM
5,"Fc1ccc(C(F)(F)F)c2nc(CCC#Cc3ccccn3)oc12 [Example 97, 7-Fluoro-4-(trifluoromethyl)-2-(4-(pyridin-2-yl)but-3-ynyl)benzo[d]oxazole]",< 10000 nM
6,"C(#Cc1ccncn1)CCc1nc2ccccc2o1 [Example 98, 2-(4-(Pyrimidin-4-yl)but-3-ynyl)benzo[d]oxazole]",< 10000 nM
7,"CN(C(=O)CCC#Cc1ccccn1)c1cccc(Cl)c1 [Example 99, N-(3-Chlorophenyl)-N-methyl-5-(pyridin-2-yl)pent-4-ynamide]",< 10000 nM
8,"Cc1ccc(Cl)c2sc(CCC#Cc3ccccn3)nc12 [Example 100, 7-Chloro-4-methyl-2-(4-(pyridin-2-yl)but-3-ynyl)benzo[d]thiazole]",< 10000 nM
9,"Fc1cccc2sc(CCC#Cc3ccccn3)nc12 [Example 101, 4-Fluoro-2-(4-(pyridin-2-yl)but-3-ynyl)benzo[d]thiazole]",< 50 nM
10,"Cc1ccc(C)c2sc(CCC#Cc3ccccn3)nc12 [Example 102, 4,7-Dimethyl-2-(4-(pyridin-2-yl)but-3-ynyl)benzo[d]thiazole]",< 10000 nM
11,"Cc1cccc2sc(CCC#Cc3ccccn3)nc12 [Example 103, 4-Methyl-2-(4-(pyridin-2-yl)but-3-ynyl)benzo[d]thiazole]",< 50 nM
12,"Fc1ccc2sc(CCC#Cc3ccccn3)nc2c1 [Example 104, 5-Fluoro-2-(4-(pyridin-2-yl)but-3-ynyl)benzo[d]thiazole]",< 50 nM
13,"Clc1cccc2sc(CCC#Cc3ccccn3)nc12 [Example 105, 4-Chloro-2-(4-(pyridin-2-yl)but-3-ynyl)benzo[d]thiazole]",< 50 nM
14,"Cn1c(CCC#Cc2ccccn2)nc2ccccc21 [Example 107, 1-Methyl-2-(4-(pyridin-2-yl)but-3-ynyl)-1H-benzo[d]imidazole]",< 500 nM
15,"C(#Cc1ccccn1)CCn1cc2ccccc2n1 [Example 108, 2-(4-(Pyridin-2-yl)but-3-ynyl)-2H-indazole]",< 500 nM
16,"C(#Cc1ccccn1)CCn1nc2ccccc2n1 [Example 109, 2-(4-(Pyridin-2-yl)but-3-ynyl)-2H-benzo[d][1,2,3]triazole]",< 500 nM
17,"C(#Cc1ccccn1)CCc1cc(-c2ccccc2)no1 [Example 111, 2-(4-(3-Phenylisoxazol-5-yl)but-1-ynyl)pyridine]",< 10000 nM
18,"Cc1nc(C#CCCc2nc3ccccc3s2)cs1 [Example 112, 2-(4-(2-Methylthiazol-4-yl)but-3-ynyl)benzo[d]thiazole]",< 50 nM
19,"Fc1ccc(C#CCCc2nc3ccccc3s2)nc1 [Example 113, 2-(4-(5-Fluoropyridin-2-yl)but-3-ynyl)benzo[d]thiazole]",< 10000 nM
20,"Cc1cccc(C#CCCc2nc3ccccc3s2)n1 [Example 114, 2-(4-(6-Methylpyridin-2-yl)but-3-ynyl)benzo[d]thiazole]",< 50 nM
21,"Fc1ccc(Cl)c2sc(CCC#Cc3ccccn3)nc12 [Example 116, 7-Chloro-4-fluoro-2-(4-(pyridin-2-yl)but-3-ynyl)benzo[d]thiazole]",< 50 nM
22,"Fc1cccc(C#CCCc2nc3ccccc3s2)n1 [Example 117, 2-(4-(6-Fluoropyridin-2-yl)but-3-ynyl)benzo[d]thiazole]",< 10000 nM
23,"C(#Cc1ccccn1)CCc1ccc2ccccc2n1 [Example 118, 2-(4-(Pyridin-2-yl)but-3-ynyl)quinoline]",< 500 nM
